Source: ChEMBL document CHEMBL1201862, “PubChem BioAssay data set” (2004)
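Cells were grown in 96-well plates and exposed to each compound for 48 hours at five concentrations; endpoints were interpolated linearly between bracketing concentrations, or set to the highest concentration if not reached. Here, GI50 denotes the concentration required for 50% inhibition of growth.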 The source made the active and inactive calls. No stated cut-off is given here; in the data, active = GI50 up to about 1.1 µM and inactive = higher.

How the values were obtained:
Test in all cases: DTP human tumour cell line panel, 48 h
[1] = test system: M14
[2] = test system: SR
[3] = test system: PC-3
[4] = test system: Malme-3M
[5] = test system: HCC 2998
[6] = test system: HL-60
[7] = test system: RXF 393
[8] = test system: NCI-H23
[9] = test system: CCRF-CEM
[10] = test system: COLO 205
[11] = test system: SF-268
[12] = test system: NCI-H460
[13] = test system: SF-295
[14] = test system: OVCAR-5
[15] = test system: EKVX
[16] = test system: HOP-62
[17] = test system: 786-0
[18] = test system: OVCAR-4

| SMILES | GI50 [1] | GI50 [2] | GI50 [3] | GI50 [4] | GI50 [5] | GI50 [6] | GI50 [7] | GI50 [8] | GI50 [9] | GI50 [10] | GI50 [11] | GI50 [12] | GI50 [13] | GI50 [14] | GI50 [15] | GI50 [16] | GI50 [17] | GI50 [18] |
| --- | --- | --- | --- | --- | --- | --- | --- | --- | --- | --- | --- | --- | --- | --- | --- | --- | --- | --- |
| CC(=O)OCC1OC(NC(=S)Nn2c(-c3ccccc3)nc3ccccc3c2=O)C(OC(C)=O)C(OC(C)=O)C1OC(C)=O (stereo unspecified) | 62.7 µM (inactive) | 35.6 µM (inactive) | > 100 µM (inactive) | 52.8 µM (inactive) | 97.9 µM (inactive) | 70.8 µM (inactive) | > 100 µM (inactive) | > 100 µM (inactive) | 38.5 µM (inactive) | > 100 µM (inactive) | > 100 µM (inactive) | > 100 µM (inactive) | > 100 µM (inactive) | > 100 µM (inactive) | > 100 µM (inactive) | 97.7 µM (inactive) | > 100 µM (inactive) | – |
| COC(=O)[C@@H]1[C@H](O)[C@H](C)[C@H](O)[C@H](C)/C=C\C=C(\C)C(=O)Nc2c(C)c(OC(C)=O)c3c(c2O)C(=O)C(C)=C2OCOC(=C23)/C(C)=C/[C@@H](O)[C@H](O)[C@@H](C)[C@H]1OC(C)=O | 38.1 µM (inactive) | 33 µM (inactive) | 31.8 µM (inactive) | 34.6 µM (inactive) | – | 5.36 µM (inactive) | > 100 µM (inactive) | > 100 µM (inactive) | 44.9 µM (inactive) | – | 78.2 µM (inactive) | – | > 100 µM (inactive) | > 100 µM (inactive) | > 100 µM (inactive) | > 100 µM (inactive) | > 100 µM (inactive) | 33.2 µM (inactive) |
| CC1CC2OC(=N)C1(C#N)C2(C#N)C#N (stereo unspecified) | 29.6 µM (inactive) | 25.3 µM (inactive) | 25.7 µM (inactive) | 15.8 µM (inactive) | 19.5 µM (inactive) | – | 16.1 µM (inactive) | 23.6 µM (inactive) | 4.94 µM (inactive) | 10.9 µM (inactive) | 21.8 µM (inactive) | – | 79.1 µM (inactive) | 21.6 µM (inactive) | 16.6 µM (inactive) | 16.8 µM (inactive) | 17.9 µM (inactive) | – |
| O=c1[nH]c(=O)n(CCOc2ccccc2)cc1Nc1ccccc1 | > 100 µM (inactive) | > 100 µM (inactive) | > 100 µM (inactive) | > 100 µM (inactive) | > 100 µM (inactive) | – | 37.3 µM (inactive) | > 100 µM (inactive) | > 100 µM (inactive) | > 100 µM (inactive) | 43.3 µM (inactive) | > 100 µM (inactive) | 41.8 µM (inactive) | > 100 µM (inactive) | > 100 µM (inactive) | 22.3 µM (inactive) | 61.2 µM (inactive) | – |
| COc1cc2c(c(O)c1OC)C(=O)C(Cc1ccc(O)cc1)CO2 (stereo unspecified) | 23.1 µM (inactive) | 4.67 µM (inactive) | 33.2 µM (inactive) | 19.9 µM (inactive) | – | 29.2 µM (inactive) | 13 µM (inactive) | 29 µM (inactive) | 24.5 µM (inactive) | 73.6 µM (inactive) | 32.4 µM (inactive) | 32.7 µM (inactive) | 5.46 µM (inactive) | 48.3 µM (inactive) | – | 27.2 µM (inactive) | 32.9 µM (inactive) | 44.7 µM (inactive) |
| CCOC(=O)c1cn2c(n1)sc1c(Cl)c(Cl)ccc12 | 9.38 µM (inactive) | 2.55 µM (inactive) | 18.3 µM (inactive) | 1.96 µM (inactive) | 30.7 µM (inactive) | – | 23.8 µM (inactive) | 29.4 µM (inactive) | 4.97 µM (inactive) | 6.1 µM (inactive) | 16.9 µM (inactive) | > 60.1 µM (inactive) | 22.9 µM (inactive) | 30.2 µM (inactive) | 31 µM (inactive) | 15.5 µM (inactive) | 7.66 µM (inactive) | 46.6 µM (inactive) |
| CCCCCNC(=O)OC1CCn2c1nc1c2C(=O)C(C)=C(N2CC2)C1=O (stereo unspecified) | 1.45 µM (inactive) | 20.7 µM (inactive) | 1.05 µM (active) | 2.19 µM (inactive) | 0.311 µM (active) | 6.05 µM (inactive) | 0.543 µM (active) | 1.24 µM (inactive) | 26.5 µM (inactive) | 1.41 µM (inactive) | 0.946 µM (active) | 0.218 µM (active) | 1.2 µM (inactive) | 3.05 µM (inactive) | – | – | 0.455 µM (active) | 1.3 µM (inactive) |
| COc1cccc2c(=O)oc(-c3ccccc3C)nc12 | – | 49.4 µM (inactive) | 35.7 µM (inactive) | 42.2 µM (inactive) | 35 µM (inactive) | 32 µM (inactive) | 30 µM (inactive) | 61.4 µM (inactive) | 25.9 µM (inactive) | 39.8 µM (inactive) | 43.3 µM (inactive) | 56.9 µM (inactive) | 42.6 µM (inactive) | 61.4 µM (inactive) | > 100 µM (inactive) | 27.3 µM (inactive) | 44.8 µM (inactive) | 22.7 µM (inactive) |
| Cc1cnc2sn(-c3ccc(Oc4ccccc4)cc3)c(=O)c2c1 | 7.43 µM (inactive) | 7.06 µM (inactive) | 13.4 µM (inactive) | 1.7 µM (inactive) | 6.47 µM (inactive) | 4.36 µM (inactive) | – | 25.4 µM (inactive) | 5.11 µM (inactive) | 20.5 µM (inactive) | 11.8 µM (inactive) | 7.41 µM (inactive) | 15.5 µM (inactive) | 18.4 µM (inactive) | 13.4 µM (inactive) | 12.9 µM (inactive) | 10.7 µM (inactive) | 17.9 µM (inactive) |
| COc1cc(-c2cc(=O)c3cc4c(cc3[nH]2)OCO4)cc(OC)c1O | > 10 µM (inactive) | > 10 µM (inactive) | > 10 µM (inactive) | – | > 10 µM (inactive) | > 10 µM (inactive) | > 10 µM (inactive) | > 10 µM (inactive) | > 10 µM (inactive) | > 10 µM (inactive) | > 10 µM (inactive) | > 10 µM (inactive) | > 10 µM (inactive) | > 10 µM (inactive) | > 10 µM (inactive) | > 10 µM (inactive) | > 10 µM (inactive) | > 10 µM (inactive) |
| COc1cc(S(=O)(=O)N/N=C/c2cc(Br)c(O)c(OC)c2)c(OC)cc1NC(C)=O | > 100 µM (inactive) | 80.2 µM (inactive) | 62.2 µM (inactive) | – | – | 25 µM (inactive) | 42.6 µM (inactive) | > 100 µM (inactive) | 21.7 µM (inactive) | 23.4 µM (inactive) | – | – | > 100 µM (inactive) | > 100 µM (inactive) | 55.5 µM (inactive) | > 100 µM (inactive) | 27 µM (inactive) | 69.3 µM (inactive) |
| CC1(C)OC(=O)C(C)(C)OC1=O | > 100 µM (inactive) | > 100 µM (inactive) | > 100 µM (inactive) | > 100 µM (inactive) | – | > 100 µM (inactive) | > 100 µM (inactive) | > 100 µM (inactive) | > 100 µM (inactive) | > 100 µM (inactive) | > 100 µM (inactive) | > 100 µM (inactive) | > 100 µM (inactive) | > 100 µM (inactive) | > 100 µM (inactive) | > 100 µM (inactive) | > 100 µM (inactive) | > 100 µM (inactive) |
| CC(CC=O)Nc1nn2c(=O)c3ccccc3nc2s1 (stereo unspecified) | > 100 µM (inactive) | > 100 µM (inactive) | > 100 µM (inactive) | > 100 µM (inactive) | > 100 µM (inactive) | – | > 100 µM (inactive) | > 100 µM (inactive) | > 100 µM (inactive) | > 100 µM (inactive) | > 100 µM (inactive) | > 100 µM (inactive) | > 100 µM (inactive) | > 100 µM (inactive) | > 100 µM (inactive) | > 100 µM (inactive) | > 100 µM (inactive) | > 100 µM (inactive) |
| Nc1ccccc1/N=N/c1c(S(=O)(=O)O)cc2cc(S(=O)(=O)O)cc(O)c2c1O | > 100 µM (inactive) | > 100 µM (inactive) | > 100 µM (inactive) | > 100 µM (inactive) | > 100 µM (inactive) | – | > 100 µM (inactive) | > 100 µM (inactive) | > 100 µM (inactive) | > 100 µM (inactive) | > 100 µM (inactive) | – | > 100 µM (inactive) | > 100 µM (inactive) | > 100 µM (inactive) | > 100 µM (inactive) | 45.7 µM (inactive) | > 100 µM (inactive) |
| COC[C@@H](/N=C/c1ccc(OC)cc1)C(C)C | > 100 µM (inactive) | > 100 µM (inactive) | > 100 µM (inactive) | > 100 µM (inactive) | – | – | > 100 µM (inactive) | > 100 µM (inactive) | > 100 µM (inactive) | 80.4 µM (inactive) | > 100 µM (inactive) | > 100 µM (inactive) | > 100 µM (inactive) | > 100 µM (inactive) | > 100 µM (inactive) | > 100 µM (inactive) | > 100 µM (inactive) | > 100 µM (inactive) |
| Cc1ccc(S(=O)(=O)NC(=O)NC(Cc2c[nH]c3ccccc23)C(=O)O)cc1 (stereo unspecified) | > 100 µM (inactive) | > 100 µM (inactive) | > 100 µM (inactive) | > 100 µM (inactive) | – | > 100 µM (inactive) | > 100 µM (inactive) | > 100 µM (inactive) | > 100 µM (inactive) | > 100 µM (inactive) | > 100 µM (inactive) | > 100 µM (inactive) | > 100 µM (inactive) | > 100 µM (inactive) | – | > 100 µM (inactive) | > 100 µM (inactive) | > 100 µM (inactive) |
| N#Cc1ccc(/N=N/N2CCCC2)cc1 | > 100 µM (inactive) | 15.2 µM (inactive) | 83.8 µM (inactive) | – | > 100 µM (inactive) | 91.2 µM (inactive) | > 100 µM (inactive) | 95.1 µM (inactive) | 43.7 µM (inactive) | > 100 µM (inactive) | > 100 µM (inactive) | > 100 µM (inactive) | > 100 µM (inactive) | > 100 µM (inactive) | 63.8 µM (inactive) | > 100 µM (inactive) | > 100 µM (inactive) | 98.9 µM (inactive) |
